Data set [1] addresses α-Glucosidase from Saccharomyces cervisiae. In kind it is biochemical. The note with it: in vitro; phosphate buffer pH 6.8, 37° C., substrate 0.7 mM, absorbance at 400 nm; read-out: α-Glucosidase Inhibition (IC50 in μM). How it is done: Assay Protocol for α-Glucosidase Inhibition (In Vitro α-Glucosidase Inhibition Assay)
α-Glucosidase inhibition assay was performed spectrophotometrically. α-Glucosidase from Saccharomyces cervisiae was dissolved in phosphate buffer (pH 6.8, 50 mM). Test compounds were dissolved in 70% DMSO. In 96-well plates, 20 μL of test sample, 20 μL of enzyme and 135 μL of buffer were added and incubated for 15 minutes at 37° C. After incubation, 25 μL, of p-nitrophenyl-α-D-glucopyranoside (0.7 mM, Sigma Aldrich) was added and the change in absorbance was monitored for 30 minutes at 400 nm. Test compound was replaced by DMSO (7.5% final) as control. Acarbose (Acarbose, Sigma Aldrich) was used as a standard inhibitor.

In the case of `O=C(CC(c1cccc(Br)c1)c1c[nH]c2ccccc12)c1ccccc1` (stereo not shown) [Compound 3r, 3-(3-bromophenyl)-3-(1H-indol-3-yl)-1-phenylpropan-1-one], the melting point lay within 102 to 104 °C. In addition, the IC50 in data set [1] was found to be 33.2 ± 0.75 µM.
`COc1ccc([C@H](CC(=O)c2ccc3ccccc3c2)c2c[nH]c3ccccc23)cc1` [Compound 3f, (S)-3-(1H-Indol-3-yl)-3-(4-methoxyphenyl)-1-(naphthalen-2-yl)propan-1-one] registered a melting point of 159 to 162 °C. Moreover, in data set [1], the IC50 amounted to 15.2 ± 0.58 µM.
Molecule `O=C(C[C@@H](c1ccc(Cl)cc1)c1c[nH]c2ccccc12)c1ccc2ccccc2c1` [Compound 3b, (S)-3-(4-Chlorophenyl)-3-(1H-indol-3-yl)-1-(naphthalen-2-yl)propan-1-one] came in with a melting point of 237 to 241 °C. The IC50 in data set [1] worked out at 17.6 ± 0.98 µM.
Consider `COc1ccc([C@H](CC(=O)c2ccccc2)c2c[nH]c3ccccc23)cc1` [Compound 3e, (S)-3-(1H-Indol-3-yl)-3-(4-methoxyphenyl)-1-phenylpropan-1-one], for which the melting point fell in the range of 134 to 136 °C. Further, in data set [1], the IC50 stood at 27.1 ± 0.69 µM.
`Cc1cc(C)c([C@H](CC(=O)c2ccc3ccccc3c2)c2c[nH]c3ccccc23)c(C)c1` [Compound 3i, (S)-3-(1H-Indol-3-yl)-3-mesityl-1-(naphthalen-2-yl)propan-1-one] had a melting point of 227 to 229 °C. Moreover, the IC50 in data set [1] is 15.1 ± 0.4 µM.
With `O=C(C[C@@H](c1ccccc1)c1c[nH]c2ccccc12)c1ccccc1` [Compound 3a, (S)-3 (1H-Indol-3-yl)-1,3-diphenylpropan-1-one], in data set [1], the IC50 was 43.3 ± 0.92 µM.
For the molecule `Cc1cc(C)c([C@H](CC(=O)c2ccccc2)c2c[nH]c3ccccc23)c(C)c1` [Compound 3c, (S)-3-(1H-Indol-3-yl)-3-mesityl-1-phenylpropan-1-one], the melting point is 169 to 171 °C. In addition, the IC50 in data set [1] worked out at 25.2 ± 1.96 µM.
The corresponding values for `O=C(C[C@@H](c1ccc(Cl)cc1)c1c[nH]c2ccccc12)c1ccccc1` [Compound 3h, (S)-3-(4-Chlorophenyl)-3-(1H-indol-3-yl)-1-phenylpropan-1-one] are 189 to 192 °C and 37.9 ± 0.86 µM.
The molecule `O=C(CC(c1c(Cl)cccc1Cl)c1c[nH]c2ccccc12)c1ccccc1` (stereo not shown) [Compound 3m, 3-(2,6-dichlorophenyl)-3-(1H-indol-3-yl)-1-phenylpropan-1-one] yielded a melting point of 119 to 121 °C. The concentration for half-maximal inhibition (IC50) in data set [1] stood at 4.3 ± 0.13 µM.
`O=C(CC(c1cccc([N+](=O)[O-])c1)c1c[nH]c2ccccc12)c1ccccc1` (stereo not shown) [Compound 3p, 3-(1H-indol-3-yl)-3-(3-nitrophenyl)-1-phenylpropan-1-one] yielded a melting point of 105 to 107 °C. Besides, the IC50 in data set [1] came out at 34.6 ± 1.55 µM.
`Cc1cccc(C(CC(=O)c2ccccc2)c2c[nH]c3ccccc23)c1` (stereo not shown) [Compound 3n, 3-(1H-indol-3-yl)-1-phenyl-3-(m-tolyl)propan-1-one] yielded a melting point of 130 to 132 °C. Further, the IC50 in data set [1] came out at 26.3 ± 0.48 µM.
`Cc1ccc([C@H](CC(=O)c2ccccc2)c2c[nH]c3ccccc23)cc1` [Compound 3d, (S)-3-(1H-Indol-3-yl)-1-phenyl-3-(p-tolyl)propan-1-one] had a melting point of 153 to 155 °C. Also, the IC50 in data set [1] was 24 ± 4 µM.
On to `O=C(CC(c1cccs1)c1c[nH]c2ccccc12)c1ccc2ccccc2c1` (stereo not shown) [Compound 3o, 3-(1H-indol-3-yl)-1-(naphthalen-2-yl)-3-(thiophen-2-yl)propan-1-one], for which the IC50 in data set [1] turned out to be 11.8 ± 0.06 µM.
In turn, `O=C(CC(c1ccc(Cl)cc1Cl)c1c[nH]c2ccccc12)c1ccccc1` (stereo not shown) [Compound 3l, 3-(2,4-dichlorophenyl)-3-(1H-indol-3-yl)-1-phenylpropan-1-one] yielded a melting point of 110 to 112 °C. Moreover, the IC50 in data set [1] stood at 15.6 ± 0.17 µM.
Molecule `O=C(C[C@@H](c1cccs1)c1c[nH]c2ccccc12)c1ccccc1` [Compound 3k, (R)-3-(1H-Indol-3-yl)-1-phenyl-3-(thiophen-2-yl)propan-1-one] gave a melting point of 112 to 115 °C. Further, the IC50 in data set [1] turned out to be 21.8 ± 0.25 µM.
The corresponding values for `O=C(CC(c1ccc(Br)cc1)c1c[nH]c2ccccc12)c1ccccc1` (stereo not shown) [Compound 3q, 3-(4-bromophenyl)-3-(1H-indol-3-yl)-1-phenylpropan-1-one] are 95 to 97 °C and 24.9 ± 1.61 µM.
For the molecule `Cc1ccc([C@H](CC(=O)c2ccc3ccccc3c2)c2c[nH]c3ccccc23)cc1` [Compound 3j, (S)-3-(1H-Indol-3-yl)-1-(naphthalen-2-yl)-3-(p-tolyl)propan-1-one], the melting point fell in the range of 174 to 177 °C. The IC50 in data set [1] turned out to be 18.1 ± 1.9 µM.
As for `O=C(C[C@@H](c1ccccc1)c1c[nH]c2ccccc12)c1ccc2ccccc2c1` [Compound 3g, (S)-3-(1H-Indol-3-yl)-1-(naphthalen-2-yl)-3-phenylpropan-1-one], the melting point was in the range of 166 to 169 °C. In data set [1], the half-maximal inhibitory concentration (IC50) turned out to be 43.9 ± 0.51 µM.

The IC50 is the midpoint of a concentration-inhibition curve. Usually melting point stands for the temperature, or range, at which the solid turns liquid.

Source of the values: patent publication US9802894B2, “α-glucosidase inhibitors” (priority 2015, dated 2017).
